{"source": "patent US10961197B2", "about": "“Metal chelators for imaging, therapeutics, and bioanalysis” (THE BOARD OF TRUSTEES OF THE UNIVERSITY OF ILLINOIS, priority 2016, dated 2021)", "type_in_all_cases": "physicochemical", "key": {"[1]": {"test": "EDTA challenge assay of kinetic inertness (luminescence over time, 5 nM complex, 1 mM EDTA)", "conditions": "for stability in EDTA solution: for 2 days", "protocol": "FIG. 2 is a graph of the relative kinetic stability as measured by the luminescence signal intensity at ca. 545 nm (for Tb(III) complexes) or 620 nm (for Eu(III) complexes) for various dilute aqueous solutions (5 nM) of the indicated metal complexes in TBS buffer containing 1 mM EDTA.\nFIG. 3 is a graph of the relative kinetic stability as measured by the luminescence signal intensity at ca. 545 nm (for Tb(III) complexes) or 620 nm (for Eu(III) complexes) for various dilute aqueous solutions (5 nM) of the indicated metal complexes in TBS buffer containing 1 mM EDTA.\nThe cyclic TTHA-based complexes Tb-12a and Eu-12b were still more than 40% in emissive after 48 h.\n(§1) Complete metallation, as judged by formation of green Tb luminescence, occurred in less than 15 min. The resulting complex was then diluted to a final concentration of 5 nM in buffer solution that contained a much higher concentration (1 mM) of a competing chelator, ethylene diamine tetraacetic acid (EDTA). By observing the metal luminescence over time, the kinetic inertness of compound iii relative to that of other known chelators was assessed."}, "[2]": {"test": "Metallation of chelator with Tb in buffer at 1:1 ratio, judged by green Tb luminescence", "conditions": "1:1 ratio in buffer", "protocol": "as §1"}, "[3]": {"test": "Quantum yield of emission of lanthanide complexes in water / aqueous buffer", "conditions": "Tb complex", "protocol": "A cyclohexyl analog of the metal chelator was prepared with methylenecarboxylate pendant groups and a sensitizing chromophore (carbostyril 124) appended to one of the central nitrogens (compound iii). The synthesis of compound iii was remarkably efficient (8 steps, 45% overall yield). Moreover, it can be scaled up and altered to prepare different derivatives, as evidenced by the incorporation of a single chromophore into the structure. Given its position in the molecule, the amide oxygen between the cyclohexyl nitrogen and the chromophore may coordinate to a bound Tb ion. This coordination in turn would allow for efficient sensitization of metal luminescence and result in a high quantum yield of emission. […] The quantum yield of compound iii exceeded 50% in water, making it among the most efficient luminescent Tb complexes known.\nAll of the complexes prepared show characteristic lanthanide emission spectra. UV-Vis absorption spectra closely matched those of previously reported carbostyril-sensitized complexes. […] The efficient emission and lack of bound waters support the hypothesis that inner substitution positions the sensitizer such that it remains coordinated to the metal center."}}}
{"compound": "Cc1cc(=O)[nH]c2c(NC(=O)CN(CCN(CC(=O)O)[C@@H]3CCCC[C@H]3N(CC(=O)O)CC(=O)O)[C@H]3CCCC[C@@H]3N(CC(=O)O)CC(=O)O)cccc12", "note": "[Compound iii]", "values": [{"measurement": "time to equilibrate with the EDTA solution", "setting": "[1]; Tb complex", "result": "2 to 3", "unit": "h"}, {"measurement": "stability in EDTA solution", "setting": "[1]", "result": "remains essentially stable"}, {"measurement": "time to complete metallation", "setting": "[2]", "result": "less than 15 min"}, {"measurement": "quantum yield", "setting": "[3]", "result": "exceeded 50%"}]}
{"compound": "O=C(O)CN1CCN(CC(=O)O)CCN(CC(=O)O)CCN(CC(=O)O)CC1", "note": "[DOTA, 1,4,7,10-tetraazacyclododecane-1,4,7,10-tetraacetic acid]", "values": [{"measurement": "stability in EDTA solution", "setting": "[1]", "result": "remains essentially stable"}]}
{"compound": "O=C(O)CN(CCN(CC(=O)O)CC(=O)O)CCN(CC(=O)O)CC(=O)O", "note": "[DTPA, diethylamine triamine pentaacetic acid]", "values": [{"measurement": "time to complete dissociation from Tb(III)", "setting": "[1]", "result": "ca. 10 h"}]}
{"compound": "DOTAm", "values": [{"measurement": "stability in EDTA solution", "setting": "[1]", "result": "remains essentially stable"}]}
